One series has as its system HeLa. Description: Cytotoxicity against human HeLa cells after 48 hrs by MTT assay. The format is functional, cell-based.
The next series deals with MCF7. Description: Cytotoxicity against human MCF7 cells after 48 hrs by MTT assay. The following applies: MCF7, 48 h. In kind it is functional, cell-based.
The next series concerns NCI-H460. The experiment in a line: Cytotoxicity against human NCI-H460 cells after 48 hrs by MTT assay. The conditions noted are these: NCI-H460, 48 h. The format is functional, cell-based.
In series [1] the test system is Mus musculus. Description: Toxicity in Swiss albino mouse xenografted with mouse EAC cells assessed as RBC level at 10 mg/kg/day, ip administered for 9 days measured on day 14 (reference value: 2.36 +/- 0.13 million/mm3). On the set-up: route intraperitoneal. The conditions noted are these: in vivo, 216 h. The format is organism-based, Ehrlich.
Series [2] has as its system Mus musculus. The experiment in a line: Toxicity in Swiss albino mouse xenografted with mouse EAC cells assessed as WBC level at 5 mg/kg/day, ip administered for 9 days measured on day 14 (reference value: 20.66 +/- 0.81 10^3/mm3). The format is organism-based, Ehrlich. On the set-up: route intraperitoneal. The conditions noted are these: in vivo, 216 h.
The subject of series [3] is Mus musculus. Description: Toxicity in Swiss albino mouse xenografted with mouse EAC cells assessed as WBC level at 10 mg/kg/day, ip administered for 9 days measured on day 14 (reference value: 20.66 +/- 0.81 10^3/mm3). In kind it is organism-based, Ehrlich. On the set-up: route intraperitoneal. The following applies: in vivo, 216 h.
The subject of series [4] is Mus musculus. Description: Hepatoprotective activity in Swiss albino mouse xenografted with mouse EAC cells assessed as SGPT level at 5 mg/kg/day, ip administered for 9 days measured on day 14 (reference value: 57.84 +/- 0.3 IU/L). The format is functional, Ehrlich. The conditions noted are these: route intraperitoneal.
The test system of series [5] is Mus musculus. Description: Hepatoprotective activity in Swiss albino mouse xenografted with mouse EAC cells assessed as SGPT level at 10 mg/kg/day, ip administered for 9 days measured on day 14 (reference value: 57.84 +/- 0.3 IU/L). In kind it is functional, Ehrlich. The following applies: route intraperitoneal.
Series [6] relates to Mus musculus. Description: Hepatoprotective activity in Swiss albino mouse xenografted with mouse EAC cells assessed as SGOT level at 5 mg/kg/day, ip administered for 9 days measured on day 14 (reference value: 112 +/- 1.42 IU/L). In kind it is functional, Ehrlich. The following applies: route intraperitoneal.
Series [7] relates to Mus musculus. Description: Hepatoprotective activity in Swiss albino mouse xenografted with mouse EAC cells assessed as SGOT level at 10 mg/kg/day, ip administered for 9 days measured on day 14 (reference value: 112 +/- 1.42 IU/L). In kind it is functional, Ehrlich. The conditions noted are these: route intraperitoneal.
The subject of series [8] is Mus musculus. The experiment in a line: Hepatoprotective activity in Swiss albino mouse xenografted with mouse EAC cells assessed as total protein level at 5 mg/kg/day, ip administered for 9 days measured on day 14 (reference value: 7.54 +/- 0.14 mg/dL). In kind it is functional, Ehrlich. The following applies: route intraperitoneal.
The test system of series [9] is Mus musculus. Description: Hepatoprotective activity in Swiss albino mouse xenografted with mouse EAC cells assessed as total protein level at 10 mg/kg/day, ip administered for 9 days measured on day 14 (reference value: 7.54 +/- 0.14 mg/dL). The format is functional, Ehrlich. The conditions noted are these: route intraperitoneal.
The test system of another series is Ehrlich. The experiment in a line: Anticancer activity against mouse EAC cells xenografted in Swiss albino mouse assessed as decrease in ascitic fluid volume relative to tumor control. The format is functional.
For series [10], the system named is Mus musculus. Description: Toxicity in Swiss albino mouse xenografted with mouse EAC cells assessed as body weight at 5 mg/kg/day, ip administered for 9 days measured on day 14 (reference value: 13.57 +/- 0.8 g). In kind it is organism-based, Ehrlich. On the set-up: route intraperitoneal. The following applies: in vivo, 216 h.
The test system of series [11] is Mus musculus. Description: Toxicity in Swiss albino mouse xenografted with mouse EAC cells assessed as body weight at 10 mg/kg/day, ip administered for 9 days measured on day 14 (reference value: 13.57 +/- 0.8 g). The conditions noted are these: in vivo, 216 h. The format is organism-based, Ehrlich. On the set-up: route intraperitoneal.
A short description of series [12]: Antitumor activity against mouse EAC cells xenografted in Swiss albino mouse assessed as increase in life span at 5 mg/kg/day, ip administered for 9 days relative to vehicle-treated control. The conditions noted are these: route intraperitoneal. The format is functional, Ehrlich.
Series [13] is described as follows: Antitumor activity against mouse EAC cells xenografted in Swiss albino mouse assessed as increase in life span at 10 mg/kg/day, ip administered for 9 days relative to vehicle-treated control. The format is functional, Ehrlich. The following applies: route intraperitoneal.
Series [14] in a line: Antitumor activity against mouse EAC cells xenografted in Swiss albino mouse assessed as tumor volume at 5 mg/kg/day, ip administered for 9 days measured on day 14 (reference value: 3.53 +/- 0.85 mL). In kind it is functional, Ehrlich. The conditions noted are these: route intraperitoneal.
Series [15] can be described thus: Antitumor activity against mouse EAC cells xenografted in Swiss albino mouse assessed as tumor volume at 10 mg/kg/day, ip administered for 9 days measured on day 14 (reference value: 3.53 +/- 0.85 mL). The following applies: route intraperitoneal. The format is functional, Ehrlich.
Series [16] can be described thus: Antitumor activity against mouse EAC cells xenografted in Swiss albino mouse assessed as packed cell volume at 5 mg/kg/day, ip administered for 9 days measured on day 14 (reference value: 2.2 +/- 0.26 mL). The format is functional, Ehrlich. The conditions noted are these: route intraperitoneal.
Series [17] in a line: Antitumor activity against mouse EAC cells xenografted in Swiss albino mouse assessed as packed cell volume at 10 mg/kg/day, ip administered for 9 days measured on day 14 (reference value: 2.2 +/- 0.26 mL). In kind it is functional, Ehrlich. The following applies: route intraperitoneal.
Series [18] is described as follows: Antitumor activity against mouse EAC cells xenografted in Swiss albino mouse assessed as viable tumor cells at 5 mg/kg/day, ip administered for 9 days measured on day 14 by trypan blue exclusion assay (reference value: 7 +/- 0.43 /ml). The following applies: route intraperitoneal. The format is functional, Ehrlich.
Series [19] is described as follows: Antitumor activity against mouse EAC cells xenografted in Swiss albino mouse assessed as viable tumor cells at 10 mg/kg/day, ip administered for 9 days measured on day 14 by trypan blue exclusion assay (reference value: 7 +/- 0.43 /ml). The conditions noted are these: route intraperitoneal. The format is functional, Ehrlich.
Series [20] in a line: Antitumor activity against mouse EAC cells xenografted in Swiss albino mouse assessed as non-viable tumor cells at 5 mg/kg/day, ip administered for 9 days measured on day 14 by trypan blue exclusion assay (reference value: 1.02 +/- 0.09 /ml). In kind it is functional, Ehrlich. The conditions noted are these: route intraperitoneal.
Series [21] can be described thus: Antitumor activity against mouse EAC cells xenografted in Swiss albino mouse assessed as non-viable tumor cells at 10 mg/kg/day, ip administered for 9 days measured on day 14 by trypan blue exclusion assay (reference value: 1.02 +/- 0.09 /ml). In kind it is functional, Ehrlich. The following applies: route intraperitoneal.
Series [22] relates to Mus musculus. Description: Toxicity in Swiss albino mouse xenografted with mouse EAC cells assessed as haemoglobin level at 5 mg/kg/day, ip administered for 9 days measured on day 14 (reference value: 5.54 +/- 0.734 g%). In kind it is organism-based, Ehrlich. On the set-up: route intraperitoneal. The conditions noted are these: in vivo, 216 h.
For series [23], the system named is Mus musculus. The experiment in a line: Toxicity in Swiss albino mouse xenografted with mouse EAC cells assessed as haemoglobin level at 10 mg/kg/day, ip administered for 9 days measured on day 14 (reference value: 5.54 +/- 0.734 g%). On the set-up: route intraperitoneal. The conditions noted are these: in vivo, 216 h. The format is organism-based, Ehrlich.
Series [24] deals with Mus musculus. Description: Toxicity in Swiss albino mouse xenografted with mouse EAC cells assessed as RBC level at 5 mg/kg/day, ip administered for 9 days measured on day 14 (reference value: 2.36 +/- 0.13 million/mm3). In kind it is organism-based, Ehrlich. On the set-up: route intraperitoneal. The following applies: in vivo, 216 h.

≈ marks a conversion by molar mass, not a printed value. Calls of active or inactive are those of the source. No cut-off for these calls is given here.

Consider `Cc1noc2cc3c(nc12)[nH]c1ccc(Cl)cc13`, for which the values for the half-maximal inhibitory concentration (IC50) with HeLa, with MCF7 and in the series with NCI-H460 were 49.3 µg/mL (≈ 191 µM), 49.1 µg/mL (≈ 190 µM) and 36.4 µg/mL (≈ 141 µM), respectively.

For the compound `Cc1noc2cc3c(nc12)[nH]c1c(C)cccc13`, the Activity with Mus musculus [1] is 4.14 million/mm3; in the series with Mus musculus [2], 17.65 ×10³ /mm3; in the series on Mus musculus [3] it was 15.25 ×10³ /mm3; with Mus musculus [4] it was 55.1 IU/L; with Mus musculus [5], 41.06 IU/L; in the series with Mus musculus [6] it was 106.3 IU/L. Moreover, the Activity worked out at 101.06 IU/L in the series with Mus musculus [7]; 6.43 mg/dL with Mus musculus [8]; 4.77 mg/dL in the series on Mus musculus [9]; 9.76 g in the series on Mus musculus [10]; 5.93 g with Mus musculus [11]; 36.36% in [12]. Further, the Activity in [13] was determined as 75%; in series [14] it was 2.13 mL; in series [15], 1.4 mL; in series [16] it was 1.36 mL; in series [17] it was 0.86 mL; in series [18], 4.74 ×10⁷ /ml. Also, the Activity in series [19] came out at 2.97 ×10⁷ /ml; in [20] it was 2.31 ×10⁷ /ml; in [21], 4.2 ×10⁷ /ml; in the series on Mus musculus [22], 7.09 g%; in the series on Mus musculus [23] it was 8.88 g%; in the series on Mus musculus [24], 3.34 million/mm3. In the series with Ehrlich, the outcome was Active. Besides, the 50% inhibitory concentration (IC50) in the series on HeLa was 23.6 µg/mL (≈ 99.6 µM); with MCF7, 22.5 µg/mL (≈ 94.9 µM); in the series on NCI-H460 it was 20.4 µg/mL (≈ 86.2 µM).

Turning to `Cc1noc2cc3c(nc12)[nH]c1ccc(Br)cc13`, the IC50 was 61.1 µg/mL (≈ 202 µM) with HeLa, 60.4 µg/mL (≈ 200 µM) in the series with MCF7 and 63.2 µg/mL (≈ 209 µM) in the series on NCI-H460.

`Cc1noc2cc3c(nc12)[nH]c1ccccc13`: the results for the half-maximal inhibitory concentration (IC50) in the series on HeLa, with MCF7 and in the series on NCI-H460 were 54.5 µg/mL (≈ 244 µM), 53.4 µg/mL (≈ 239 µM) and 49.2 µg/mL (≈ 221 µM), respectively.

Consider `COc1ccc2[nH]c3nc4c(C)noc4cc3c2c1`, for which the values for the half-inhibitory concentration (IC50) in the series on HeLa, in the series with MCF7 and with NCI-H460 were 48.3 µg/mL (≈ 191 µM), 46.5 µg/mL (≈ 184 µM) and 45.2 µg/mL (≈ 178 µM), respectively.

As to `Cc1noc2cc3c(nc12)[nH]c1ccc(F)cc13`, the IC50 in the series with HeLa was 50.5 µg/mL (≈ 209 µM); in the series on MCF7, 51.3 µg/mL (≈ 213 µM); in the series on NCI-H460, 52.4 µg/mL (≈ 217 µM).

Turning to `Cc1ccc2[nH]c3nc4c(C)noc4cc3c2c1`, the Activity was 3.66 million/mm3 in the series with Mus musculus [1]; 19.19 ×10³ /mm3 in the series on Mus musculus [2]; 16.58 ×10³ /mm3 in the series on Mus musculus [3]; 54 IU/L with Mus musculus [4]; 47.46 IU/L with Mus musculus [5]; 106.1 IU/L with Mus musculus [6]. The Activity was determined as 98.6 IU/L in the series with Mus musculus [7]; 7.18 mg/dL with Mus musculus [8]; 6.63 mg/dL in the series on Mus musculus [9]; 11.23 g with Mus musculus [10]; 8.36 g in the series on Mus musculus [11]; 11.08% in series [12]. Moreover, the Activity worked out at 44.4% in series [13]; 2.43 mL in [14]; 1.63 mL in [15]; 1.8 mL in [16]; 1.33 mL in series [17]; 6.43 ×10⁷ /ml in [18]. In addition, the Activity in series [19] turned out to be 5.2 ×10⁷ /ml; in series [20], 1.62 ×10⁷ /ml; in series [21], 2.07 ×10⁷ /ml; in the series with Mus musculus [22], 6.26 g%; in the series with Mus musculus [23] it was 7.3 g%; in the series on Mus musculus [24], 2.93 million/mm3. The outcome with Ehrlich was Active. Also, the half-maximal inhibitory concentration (IC50) with HeLa came out at 19.7 µg/mL (≈ 83.1 µM); with MCF7, 18.8 µg/mL (≈ 79.3 µM); with NCI-H460 it was 16.7 µg/mL (≈ 70.3 µM).

With `Cc1noc2cc3c(nc12)[nH]c1c(Cl)cccc13`, the 50% inhibitory concentration (IC50) was determined as 55.6 µg/mL (≈ 216 µM) with HeLa, 54.5 µg/mL (≈ 212 µM) with MCF7 and 52.3 µg/mL (≈ 203 µM) in the series on NCI-H460.

(Values after ChEMBL document CHEMBL2157994, “Synthesis and in vitro and in vivo anticancer activity of novel 3-methyl-5H-isoxazolo[5',4':5,6]pyrido[2,3-b]indoles” (Bioorg Med Chem Lett, 2012).)
